The values below come from paper PMC11129182, “Development of Inhibitors, Probes, and PROTAC Provides a Complete Toolbox to Study PARK7 in the Living Cell” (Journal of Medicinal Chemistry, 2024).

For assay [1], the target named is T1, PARK7 (Homo sapiens, UniProt Q99497).
T1 sequence (Q99497 1-189): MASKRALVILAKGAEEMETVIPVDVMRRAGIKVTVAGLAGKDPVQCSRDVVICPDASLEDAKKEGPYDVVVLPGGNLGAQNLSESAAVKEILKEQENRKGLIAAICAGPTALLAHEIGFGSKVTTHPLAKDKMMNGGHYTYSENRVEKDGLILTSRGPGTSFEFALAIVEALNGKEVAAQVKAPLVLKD
Put plainly: Hit validation and pure-compound testing in the PARK7 FP assay with JYQ-107. It counts as biochemical. As to conditions: for inhibition at 0.25 µM: read-out: % Inhibition 0.25 µM; for potency in FP assay compared to JYQ-88: 0.25 and 1 μM; for inhibition at 0.5 µM: read-out: % Inhibition 0.5 µM.

For assay [2], the target named is T1, PARK7. Put plainly: Cell-based competition assay with probe JYQ-92 in HEK293T cells. As to conditions: 24 h; for cellular target engagement of PARK7: live HEK293T cells, 5 μM. As to the method:
Samples were resolved by SDS-PAGE and analyzed by fluorescence scanning and Western blotting (Figure 2B). The target engagement of cellular PARK7 is reflected by the disappearance of the PARK7 labeling band in the fluorescence gel scan and by the loss of the shifted probe-labeled PARK7 band in the Western blot.
HEK293T cells were treated with the indicated concentrations of indicated inhibitors for indicated incubation time.
Figure S1. Assessment of the cell permeability of JYQ -88. (A) Structure of JYQ-92.
(B) Target engagement of JYQ-88 in HEK293T cells. HEK293T cells were incubated […]
with PARK7 probe JYQ-92 fo r 1 h at 37 °C. The reactions were stopped by the addition of NuPAGE™ LDS sample buffer (4x). Samples were resolved by SDS -PAGE using […]
fluorescence scanning on a Typhoon FLA 9500 (GE Healthcare Life Sciences) using […]
The disappearance of the JYQ-92-labeled band in […]
of JYQ-88 is used as a measurement of cellular PARK7 engagement with JYQ -88.
(§1) (1 picture or pasted object on this page, not shown here)

Assay [3] deals with T1, PARK7. Briefly: Probe labeling of purified recombinant PARK7. As to conditions: 1 μM PARK7, 1 h, 37 °C.
Procedure: The ability of these probes to label and visualize PARK7 activity in vitro was evaluated by treating recombinant human PARK7 protein (1 μM) with a concentration series of the probes for 1 h at 37 °C, followed by SDS-PAGE analysis under nondenaturing conditions (without boiling and β-mercaptoethanol).
The assay was conducted in Tris-buffer (50 mM Tris-HCl, 150 mM NaCl, 2 mM TCEP, pH 7.5). PARK7 (1 μM final concentration) was incubated with different concentrations (0, 0.1, 0.5, 1, 2, 5, and 10 μM) of the indicated probes for 1 h at 37 °C. After completing the incubation time, all of the reactions were stopped by adding NuPAGE LDS sample buffer (4x).
The target of assay [4] is T1, PARK7. Briefly: Probe labeling of endogenous PARK7 in cells (HEK293T, A549). Type of assay: cell-based. As to conditions: for cellular PARK7 labeling efficiency over time: A549 cells, indicated time points; for cellular PARK7 labeling efficiency over time / labeling of PARK7 in cells: 5 μM; for labeling of PARK7 in cells: 24 h. The protocol:
To further investigate the ability of these probes to visualize PARK7 in cells, HEK293T and A549 cells were incubated with 5 μM of these probes for 24 h, followed by cell lysis, SDS-PAGE, fluorescence scanning, and immunostaining (Supporting Information Figure S7). […] We also observed a band shift of the PARK7 protein in the samples treated with JYQ-192, JYQ-196, and JYQ-197 by immunoblot against PARK7 in A549 cells. […] Therefore, we further investigated JYQ-192, JYQ-196, and JYQ-197. To characterize their cell permeability, A549 cells were incubated with 5 μM final concentration of these probes for the indicated time points, followed by confocal microscopy and by cell lysis, SDS-PAGE, fluorescence scanning, and immunostaining. All three probes already entered the cells after 1 h incubation (Supporting Information Figure S8A). […] Besides PARK7, we observed extra bands in the fluorescence scan for both HEK293T and A549 cells and a very strong band labeling between 55 and 75 kDa in A549 cells with a 5 μM final concentration of all probes.
Despite the fact that probe JYQ-196 outperformed SulfoCy5 probes JYQ-192 and JYQ-197 in terms of the cellular PARK7 labeling efficiency, this probe still lacked specificity toward PARK7. PARK7 is known to form dimers, trimers, and even high-molecular-weight complexes under nonreducing conditions.[29],[30] […] To investigate further whether lower concentrations of JYQ-196 can decrease unspecific labeling, HEK293T and A549 cells were incubated with increased concentrations (0–10 μM) of JYQ-196 for 4 h, followed by cell lysis, SDS-PAGE, fluorescence scanning, and immunostaining (Figure 4C).
Oligos used to knockdown PARK7 were purchased from Dharmacon (Cat#: MQ-005984-00-0002). Silencing was performed in HEK293T and A549 cells as follows: for a 24-well plate format, 50 μL of siRNA (500 nM stock) was incubated with 1 μL of Dharmafect reagent 1 (Dharmacon) diluted in 50 μL of medium without supplements (total volume of 100 μL of transfection mix) with gentle shaking for 20 min at room temperature (RT). A total of 30 × 10^3 HEK293T or 50 × 10^3 cells were added to transfection mixes to a total volume of 500 μL per well and cultured for 48 h prior to incubation with 5 μM final concentration of JYQ-196 for 4 h.
HEK293T or A549 cells were incubated with indicated concentration of the probes for the indicated time points, followed by cell lysis and adding loading buffer (4x).

Another assay deals with DUBs. Put plainly: Activity-based DUB profiling with Rho-Ub-PA probe in HEK293T cells. It counts as cell-based, human. Conditions: 5 µM, 24 h. As to the method: Figure S3. Activity evaluation of inhibitors against DUBs in HEK293T cells. (A ) Inhibitors from structure modification. (B) Inhibitors from HTS. HEK293T cells were […]
incubation with Rho- Ub-PA probe for 30 min at 37 °C. Samples were resolved by SDS - […]
and visualized by fluorescence scanning on a Typhoon FLA 9500 (GE Healthcare Life […]
Nitrocellulose membranes and Western blot analysis.
as §1

The target in assay [5] is T1, PARK7. Put plainly: High-throughput screen of the crude compound library, PARK7 fluorescence polarization (FP) assay with FP reagent JYQ-107. Type of assay: biochemical. Conditions: for inhibition at 1.25 µM: read-out: HTS FP assay %Inhibition (1.25 µM). A general note: Fluorescence polarisation rises when a labelled molecule tumbles more slowly, as on binding a larger partner.

[6] abbreviates: 1.25 µM, crude compound library.

Read-outs that look alike come from different tables or passages of the source.

Take `N#CN1CC[C@@H](C(=O)Nc2nc3c(s2)CN(C(=O)CC2CCNCC2)CC3)C1` [Compound 5, (R)-1-Cyano-N-(5-(2-(piperidin-4-yl)acetyl)-4,5,6,7-tetrahydrothiazolo[5,4-c]pyridin-2-yl)pyrrolidine-3-carboxamide]: on PARK7 [1] (pure compounds), the inhibition (as a rule, the change of the read-out against control, counted positive when it falls) at 0.25 µM is 38.5%; the inhibition at 1 µM came out at 71%; the “potency in FP assay compared to JYQ-88” value was “lowered”. The “cellular target engagement of PARK7” value on PARK7 [2] is listed as “did not bind with PARK7 in cells”.

As to `CC[N+]1=C(/C=C/C=C/C=C2/N(CCCCCC(=O)NCCCc3cn(-c4ccc(F)c(C(=O)N5CCc6nc(NC(=O)[C@@H]7CCN(C#N)C7)sc6C5)c4)nn3)c3ccc(S(=O)(=O)O)cc3C2(C)C)C(C)(C)c2cc(S(=O)(=O)[O-])ccc21` [JYQ-197], the “probe concentration giving complete labeling of recombinant PARK7 (Coomassie band shift)” value at PARK7 [3] stood at 1 µM. Also, at PARK7 [4], the “cellular PARK7 labeling efficiency over time” value is given as “labeled a small portion of cellular PARK7 even after 24 h incubation”. The “labeling of PARK7 in cells” value on PARK7 [4] (HEK293T and A549 cells) is listed as “clear band around 25 kDa”.

Consider `CC(=O)N1CCN(S(=O)(=O)c2cccc(C(=O)N3CCc4nc(NC(=O)[C@@H]5CCN(C#N)C5)sc4C3)c2)CC1` [Compound 336, (R)-N-(5-(3-((4-Acetylpiperazin-1-yl)sulfonyl)benzoyl)-4,5,6,7-tetrahydrothiazolo[5,4-c]pyridin-2-yl)-1-cyanopyrrolidine-3-carboxamide], for which the “inhibition of DUBs in cells” value with DUBs is given as “did not show interference with the activity of any DUB”. Besides, on PARK7 [1] (crude compounds), the inhibition at 0.25 µM came to 76.8% and the inhibition at 1 µM stood at 98.3%. The inhibition at 0.5 µM on PARK7 [1] (crude compounds, 0.5 µM) turned out to be 91.5%. Moreover, at PARK7 [1] (pure compounds), the “% Inhibition 0.25 µM” value is recorded as 87.6%, the inhibition at 0.25 µM was approximately 100% and testing at 1 µM gave an inhibition of 98.5%. At PARK7 [2] (HEK293T cells, 0.1–5 μM dilution series), the “concentration from which PARK7 is engaged” value worked out at 1 µM. The inhibition at 1.25 µM on PARK7 [5] (setting [6]) amounted to 91.8%.

For `CN1CCN(CC(=O)N2CCc3nc(NC(=O)[C@@H]4CCN(C#N)C4)sc3C2)CC1` [Compound 2, (R)-1-Cyano-N-(5-(2-(4-methylpiperazin-1-yl)acetyl)-4,5,6,7-tetrahydrothiazolo[5,4-c]pyridin-2-yl)pyrrolidine-3-carboxamide], on PARK7 [1] (pure compounds), the inhibition at 0.25 µM amounted to 53.7%, the inhibition at 1 µM came to 83.7% and the “potency in FP assay compared to JYQ-88” value was “did not improve”. The “cellular target engagement of PARK7” value on PARK7 [2] is recorded as “did not bind with PARK7 in cells”.

Regarding `Cc1csc(-c2cccc(C(=O)N3CCc4nc(NC(=O)[C@@H]5CCN(C#N)C5)sc4C3)c2)n1` [Compound 334, (R)-1-Cyano-N-(5-(3-(4-methylthiazol-2-yl)benzoyl)-4,5,6,7-tetrahydrothiazolo[5,4-c]pyridine-2-yl)pyrrolidine-3-carboxamide], the “inhibition of DUBs in cells” value in the assay with DUBs is reported as “showed inhibition of one or more DUBs, mainly UCHL1”. On PARK7 [1] (crude compounds), the inhibition at 0.25 µM amounted to 68.5% and the inhibition at 1 µM was 97.3%. The inhibition at 0.5 µM at PARK7 [1] (crude compounds, 0.5 µM) was 86.9%. At PARK7 [1] (pure compounds), the inhibition at 0.25 µM was 84.2% and at 1 µM the inhibition was 95.6%. For the same molecule, the inhibition at 1.25 µM at PARK7 [5] (setting [6]) worked out at 89.4%.

Consider `Cc1cc(C(=O)N2CCc3nc(NC(=O)[C@@H]4CCN(C#N)C4)sc3C2)ccc1Br` [Compound 415, (R)-N-(5-(4-Bromo-3-methylbenzoyl)-4,5,6,7-tetrahydrothiazolo[5,4-c]pyridin-2-yl)-1-cyanopyrrolidine-3-carboxamide], for which, in the assay on DUBs, the “inhibition of DUBs in cells” value is “showed inhibition of one or more DUBs, mainly UCHL1”. For the same molecule, the inhibition at 0.25 µM on PARK7 [1] (crude compounds) amounted to 58%; on PARK7 [1] (pure compounds), 68.3%. Besides, the inhibition at 0.5 µM at PARK7 [1] (crude compounds, 0.5 µM) was 79.8%. Further, the inhibition at 1 µM against PARK7 [1] (crude compounds) was 95.6%; on PARK7 [1] (pure compounds), 92.6%. In addition, on PARK7 [5] (1.25 µM, crude compound library, FP reagent JYQ-107), the inhibition at 1.25 µM was 93.1%.

Consider `CC1=CC(C)=[N+]2C1=C(CCCCc1cn(-c3ccc(F)c(C(=O)N4CCc5nc(NC(=O)[C@@H]6CCN(C#N)C6)sc5C4)c3)nn1)c1c(C)cc(C)n1[B-]2(F)F` [JYQ-196], for which, at PARK7 [3], the “probe concentration giving complete labeling of recombinant PARK7 (Coomassie band shift)” value amounted to 2 µM. In addition, on PARK7 [4], the “cellular PARK7 labeling efficiency over time” value is “complete labeling of cellular PARK7 after 4 h incubation”. Besides, the “labeling of PARK7 in cells” value on PARK7 [4] (HEK293T and A549 cells) is “clear band around 25 kDa”. For the same molecule, the “specificity of labeling (PARK7 siRNA depletion)” value at PARK7 [4] (HEK293T and A549 cells, siPARK7 48 h, then 5 μM for 4 h) is “unspecific labeling of other proteins”.

“(R)-N-(5-(3-(1,2,4-Oxadiazol-3-yl)benzoyl)-4,5,6,7-tetrahydrothiazolo[5,4-c]pyridin-2-yl)-1-cyanopyrrolidine-3-carboxamide [Compound 199]”: the “inhibition of DUBs in cells” value with DUBs is “showed inhibition of one or more DUBs, mainly UCHL1”. Also, the “% Inhibition 0.25 µM” value on PARK7 [1] (crude compounds) came to 81.4%; at PARK7 [1] (pure compounds), 80.7%. Also, the “% Inhibition 0.5 µM” value on PARK7 [1] (crude compounds, 0.5 µM) stood at 91.6%. Further, the results for the “% Inhibition 1 µM” value on PARK7 [1] (crude compounds) and at PARK7 [1] (pure compounds) were 98.6% and 94.6%, respectively. Also, the “HTS FP assay %Inhibition (1.25 µM)” value at PARK7 [5] (setting [6]) is 95.3%. The % Inhibition (as a rule, the percentage by which the read-out fell short of the control) on PARK7 [5] (HTS of crude compound library, sheet "SMILES+%Inh HTS") came to 95.3%.

With `N#CN1CC[C@@H](C(=O)Nc2nc3c(s2)CN(C(=O)c2cnc(-c4cccs4)s2)CC3)C1` [Compound 108, (R)-1-Cyano-N-(5-(2-(thiophen-2-yl)thiazole-5-carbonyl)-4,5,6,7-tetrahydrothiazolo[5,4-c]pyridin-2-yl)pyrrolidine-3-carboxamide], in the assay with DUBs, the “inhibition of DUBs in cells” value was “showed inhibition of one or more DUBs, mainly UCHL1”. In addition, the inhibition at 0.25 µM on PARK7 [1] (crude compounds) stood at 64.2%; at PARK7 [1] (pure compounds), 67.9%. In addition, the inhibition at 0.5 µM at PARK7 [1] (crude compounds, 0.5 µM) amounted to 85.7%. For the same molecule, the results for the inhibition at 1 µM against PARK7 [1] (crude compounds) and against PARK7 [1] (pure compounds) were 98.5% and 93.1%, respectively. For the same molecule, the inhibition at 1.25 µM at PARK7 [5] (setting [6]) amounted to 90.8%.

Turning to `N#CN1CC[C@@H](C(=O)Nc2nc3c(s2)CN(C(=O)CN2CCNCC2)CC3)C1` [Compound 4, (R)-1-Cyano-N-(5-(2-(piperazin-1-yl)acetyl)-4,5,6,7-tetrahydrothiazolo[5,4-c]pyridin-2-yl)pyrrolidine-3-carboxamide], on PARK7 [1] (pure compounds), the inhibition at 0.25 µM amounted to 40.2%, the inhibition at 1 µM was 59.9% and the “potency in FP assay compared to JYQ-88” value is given as “lowered”. For the same molecule, at PARK7 [2], the “cellular target engagement of PARK7” value is listed as “did not bind with PARK7 in cells”.
